These results are taken from US12077555B2, “STAT degraders and uses thereof” (Kymera Therapeutics, Inc., priority 2019, dated 2024).

Bounds are passed on as bounds.

T1 sequence (P40763 whole entry): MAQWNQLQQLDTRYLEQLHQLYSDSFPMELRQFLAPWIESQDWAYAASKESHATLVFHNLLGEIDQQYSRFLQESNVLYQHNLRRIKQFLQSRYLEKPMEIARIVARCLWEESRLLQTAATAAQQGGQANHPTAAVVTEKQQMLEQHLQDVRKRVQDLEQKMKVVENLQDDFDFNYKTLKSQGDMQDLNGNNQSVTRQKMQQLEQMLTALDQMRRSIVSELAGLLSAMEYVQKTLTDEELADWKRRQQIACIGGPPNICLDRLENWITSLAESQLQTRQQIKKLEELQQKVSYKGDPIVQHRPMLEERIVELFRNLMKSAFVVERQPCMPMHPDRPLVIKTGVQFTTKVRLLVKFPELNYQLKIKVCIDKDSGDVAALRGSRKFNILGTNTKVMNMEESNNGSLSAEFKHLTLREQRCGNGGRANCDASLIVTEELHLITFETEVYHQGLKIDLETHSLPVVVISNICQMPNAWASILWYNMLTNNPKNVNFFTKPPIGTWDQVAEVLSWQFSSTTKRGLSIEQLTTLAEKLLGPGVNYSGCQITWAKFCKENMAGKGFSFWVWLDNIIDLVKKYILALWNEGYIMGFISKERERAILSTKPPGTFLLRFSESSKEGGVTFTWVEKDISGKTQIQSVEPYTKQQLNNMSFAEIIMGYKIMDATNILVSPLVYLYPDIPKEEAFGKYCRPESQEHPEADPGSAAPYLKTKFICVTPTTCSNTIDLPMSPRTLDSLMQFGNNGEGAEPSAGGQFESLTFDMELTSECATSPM

The target in one assay is T1, STAT3 (Homo sapiens, UniProt P40763). The assay is described as follows: Quantitation of STAT3 degradation in A549 cells by Western blot. It counts as cell-based. Also noted: expressed in transfected cells; host or cells: A549. As to conditions: read-out: A549 DC50, 24 hours, tested up to 30 μM or 10 μM. How it is done:
Degradation of total cellular STAT3 protein in A549 was quantitatively measured using SDS-PAGE and Western blot analysis. A549 cells (5×10^5 cells/well, 2 mL) were seeded into 6-well plates and were incubated in the incubator under 5% CO2 overnight to reach ˜80% confluency. The next day, the culture medium was changed with 1 ml fresh media. Then, 1 mL of media containing 2× compound solution was added into the well to make the final concentration of 30 μM, 10 μM, 3 μM, 1 μM, 0.3 μM and 0 μM (DMSO). The media was thoroughly mixed and incubated for 24 hours at 37° C. under 5% CO2. Then, the culture media was removed from the assay plates and the cells were washed with ice-cold PBS twice. To prepare cell lysates, 200 ul pre-chilled RIPA lysis buffer (Boston BioProducts BP-115D) with protease/phosphatase inhibitor (Roche 05892791001/Roche 04906837001) was added directly into the well to lyse the cells for 20 minutes on ice. The cell lysates were then transferred to centrifuge tubes. Insoluble part of lysates was removed by centrifuging the lysates at 13000 rpm for 20 minutes. The supernatant was then collected and mixed with 5× loading buffer (Beyotime Bio P0015) to make the final samples for SDS-PAGE analysis. The samples were heated at 100° C. for 10 minutes and cool to room temperature before centrifuging at 13000 rpm for 20 minutes. To analyze the samples by SDS-PAGE, 10 ul samples were loaded onto SDS-PAGE gel (Novex, WG1403BOX) and the SDS-PAGE gel was run for 20 minutes at 80 V, then at 120 V for 1.5 hours. The SDS-PAGE gel was then transferred to nitrocellulose membrane using the wet-transfer method at 250 mA for 1.5 hours. The membrane was then blocked with LI-COR blocking buffer (LI-COR, 927-50000) for 1 hour and was probed with primary antibody (mouse anti-STAT3 (124H6) (CST #91395) 1:2000 or mouse anti-beta-Actin (8H10D10) (CST #3700) 1:10000) at 4° C. overnight. The membrane was then washed three times with TBST buffer and probed with secondary antibody (anti-mouse IgG (LI-COR, 926-68070), 1:5000) for 1 hour at room temperature. The membrane was then scanned on a LI-COR Odyssey instrument and was quantified using Image Studio Version 5.2. Concentration at 50% degradation (DC50) was calculated by fitting dose dependent degradation data using a sigmoidal equation using GraphPad Prism Version 8.0.
In general terms: A western blot detects proteins with antibodies after separation by electrophoresis.
Take `C/C(=C\C(=O)N[C@H]1CCc2cccc3c2N(C1=O)[C@H](C(=O)N[C@@H](CCC(N)=O)[C@@H](C)OCc1ccc(CCCNC(=O)COCCCc2ccc4c(c2)n(C)c(=O)n4C2CCC(=O)NC2=O)cc1)C3)c1ccc(C(F)(F)P(=O)(OCOC(=O)C(C)(C)C)OCOC(=O)C(C)(C)C)cc1` (stereo partly shown) [Compound I-68]: the DC50 (commonly the concentration at which degradation of the target reaches its halfway point) is above 30 µM. Still for that read-out and setting: next, `C/C(=C\C(=O)N[C@H]1CN(C(=O)CCCCCc2ccc3c(c2)n(C)c(=O)n3C2CCC(=O)NC2=O)CC[C@H]2CC[C@@H](C(=O)N[C@@H](CCC(N)=O)C(=O)NC(c3ccccc3)c3ccccc3)N2C1=O)c1ccc(C(F)(F)P(=O)(O)O)cc1` (stereo partly drawn) [Compound I-114, [4-[(1E)-1-[[(5S,8S,10aR)-8-[[(1S)-3-carbamoyl-1-(diphenylmethylcarbamoyl)propyl]carbamoyl]-3-[6-[1-(2,6-dioxopiperidin-3-yl)-3-methyl-2-oxo-1,3-benzodiazol-5-yl]hexanoyl]-6-oxo-octahydropyrrolo[1,2-a][1,5]diazocin-5-yl]carbamoyl]prop-1-en-2-yl]phenyl]difluoromethylphosphonic acid]: above 30 µM; `C/C(=C\C(=O)N[C@H]1CCc2cccc3c2N(C1=O)[C@H](C(=O)N[C@@H](CCC(N)=O)[C@@H](C)OCc1ccc(CCCOCCOCCOCCCc2ccc4c(c2)n(C)c(=O)n4C2CCC(=O)NC2=O)cc1)C3)c1ccc(C(F)(F)P(=O)(OCOC(=O)C(C)(C)C)OCOC(=O)C(C)(C)C)cc1` (stereo partly shown) [Compound I-55]: above 30 µM. `Cn1c(=O)n(C2CCC(=O)NC2=O)c2cccc(CCCCCCCC(=O)N3CC[C@H]4CC[C@@H](C(=O)N[C@@H](CCC(N)=O)C(=O)NC(c5ccccc5)c5ccccc5)N4C(=O)[C@@H](NC(=O)c4cc5cc(C(=O)P(=O)(O)O)ccc5[nH]4)C3)c21` (stereo partly shown) [Compound I-91]: the DC50 was below 30 µM.

As for `C/C(=C\C(=O)N[C@H]1CN(C(=O)CCCCCC#Cc2cccc3c2CN(C2CCC(=O)NC2=O)C3=O)CC[C@H]2CC[C@@H](C(=O)N[C@@H](CCC(N)=O)C(=O)NC(c3ccccc3)c3ccccc3)N2C1=O)c1ccc(CP(=O)(O)O)cc1` (stereo partly drawn) [Compound I-89, diammonium [4-[(1E)-1-[[(5S,8S,10aR)-8[[(1S)-3-carbamoyl-1-(diphenylmethylcarbamoyl)propyl]carbamoyl]-3-[8-[2-(2,6-dioxopiperidin-3-yl)-1-oxo-3H-isoindol-4-yl]oct-7-ynoyl]-6-oxo-octahydropyrrolo[1,2-a][1,5]diazocin-5-yl]carbamoyl]prop-1-en-2-yl]phenyl]methylphosphonate], the DC50 was below 30 µM. In the case of `C/C(=C\C(=O)N[C@H]1CCc2cccc3c2N(C1=O)[C@H](C(=O)N[C@@H](CCC(N)=O)[C@@H](C)OCc1ccc(CCOCCOCCOCC(=O)N[C@H](C(=O)N2C[C@H](O)C[C@H]2C(=O)NCc2ccc(-c4scnc4C)cc2)C(C)(C)C)cc1)C3)c1ccc(C(F)(F)P(=O)(OCOC(=O)C(C)(C)C)OCOC(=O)C(C)(C)C)cc1` [Compound I-30], the half-maximal degradation concentration (DC50) was above 10 µM.

For `C/C(=C\C(=O)N[C@H]1CCc2cccc3c2N(C1=O)[C@H](C(=O)N[C@@H](CCC(N)=O)[C@@H](C)OCc1ccc(CCCCCCC(=O)N[C@H](C(=O)N2C[C@H](O)C[C@H]2C(=O)NCc2ccc(-c4scnc4C)cc2)C(C)(C)C)cc1)C3)c1ccc(C(F)(F)P(=O)(OCOC(=O)C(C)(C)C)OCOC(=O)C(C)(C)C)cc1` [Compound I-28], the 50% degradation concentration (DC50) was below 30 µM. As to `C/C(=C\C(=O)N[C@H]1CCc2cccc3c2N(C1=O)[C@H](C(=O)NC(CCC(N)=O)[C@@H](C)OCc1ccc(CCCOCCOCCOCCOCC(=O)N[C@H](C(=O)N2C[C@H](O)C[C@H]2C(=O)NCc2ccc(-c4scnc4C)cc2)C(C)(C)C)cc1)C3)c1ccc(C(F)(F)P(=O)(OCOC(=O)C(C)(C)C)OCOC(=O)C(C)(C)C)cc1` (stereo partly shown) [Compound I-32], the DC50 is above 10 µM. On to `C/C(=C\C(=O)N[C@H]1CCc2cccc3c2N(C1=O)[C@H](C(=O)N[C@@H](CCC(N)=O)[C@@H](C)OCc1ccc(C(=O)N[C@H](C(=O)N2C[C@H](O)CC2C(=O)NCc2ccc(-c4scnc4C)cc2)C(C)(C)C)cc1)C3)c1ccc(C(F)(F)P(=O)(OCOC(=O)C(C)(C)C)OCOC(=O)C(C)(C)C)cc1` (stereo partly shown) [Compound I-11], for which the half-maximal degradation concentration (DC50) was above 30 µM.

For the next assay, the target named is T1, STAT3. The assay is described as follows: STAT3 HiBiT degradation assay in transfected A549 cells. The format is cell-based. Also noted: expressed in transfected cells; host or cells: A549. As to conditions: A549, 24 h; read-out: STAT3 HiBiT A549 degradation 24 h: Average external-Abs DC50. The essentials: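 Transfected A549 cells (~2000/well) plated 24 h, then treated 24 h at 37 °C, 5% CO2 with a 3-fold, 10-point compound dilution. HiBiT lytic luminescence read after 10 min at room temperature; remaining STAT3 normalized to negative and positive controls, four-parameter fit. DC50 binned A <0.01, B 0.01–0.1, C 0.1–1.0, D >1.0 µM.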
(With HiBiT, luminescence reflects the tagged protein that the partner subunit can reach.)
Regarding `Cc1ncsc1-c1ccc(CNC(=O)[C@@H]2C[C@@H](O)CN2C(=O)[C@@H](NC(=O)CCCCCCCCCOC[C@H](CCC(N)=O)NC(=O)[C@@H]2Cc3cccc4c3N2C(=O)[C@@H](NC(=O)c2cc3cc(C(=O)P(=O)(O)O)ccc3[nH]2)CC4)C(C)(C)C)cc1` [Compound I-153, 2-[[(2S,11S)-2-[[(2S)-4-carbamoyl-1-[(9-[[(2S)-1-[(2S,4R)-4-hydroxy-2-([[4-(4-methyl-1,3-thiazol-5-yl)phenyl]methyl]carbamoyl)pyrrolidin-1-yl]-3,3-dimethyl-1-oxobutan-2-yl]carbamoyl]nonyl)oxy]butan-2-yl]carbamoyl]-12-oxo-1-azatricyclo[6.4.1.0^[4,13]]trideca-4(13),5,7-trien-11-yl]carbamoyl]-1H-indole-5-carbonylphosphonic acid], the DC50 was above 1 µM. On the same count and under the same terms, the same measure for `Cc1ccc(CCCCCC(=O)N[C@H](C(=O)N2C[C@H](O)C[C@H]2C(=O)N[C@@H](C)c2ccc(-c3scnc3C)cc2)C(C)(C)C)cc1OC[C@H](CCC(N)=O)NC(=O)[C@@H]1Cc2cccc3c2N1C(=O)[C@@H](NC(=O)c1cc2cc(C(=O)P(=O)(O)O)ccc2[nH]1)CC3` [Compound I-214, 2-[[(2S,11S)-2-[[(2S)-4-carbamoyl-1-[5-(5-[[(2S)-1-[(2S,4R)-4-hydroxy-2-[[(1S)-1-[4-(4-methyl-1,3-thiazol-5-yl)phenyl]ethyl]carbamoyl]pyrrolidin-1-yl]-3,3-dimethyl-1-oxobutan-2-yl]carbamoyl]pentyl)-2-methylphenoxy]butan-2-yl]carbamoyl]-12-oxo-1-azatricyclo[6.4.1.0^[4,13]]trideca-4(13),5,7-trien-11-yl]carbamoyl]-1H-indole-5-carbonylphosphonic acid]: above 1 µM; for `Cc1ccc(OC[C@H](CCC(N)=O)NC(=O)[C@@H]2Cc3cccc4c3N2C(=O)[C@@H](NC(=O)c2cc3cc(C(=O)P(=O)(O)O)ccc3[nH]2)CC4)c(F)c1CCCCCC(=O)N[C@H](C(=O)N1C[C@H](O)C[C@H]1C(=O)N[C@@H](C)c1ccc(-c2scnc2C)cc1)C(C)(C)C` [Compound I-251]: below 0.01 µM.

Staying with this assay, now noted: read-out: STAT3 HiBiT A549 degradation 24 h: Average external-Abs DC50; A549, 24 h.
In the case of `Cc1ncsc1-c1ccc(CNC(=O)[C@@H]2C[C@@H](O)CN2C(=O)[C@@H](NC(=O)CCCCc2ccc(CO[C@H](C)[C@H](CCC(N)=O)NC(=O)[C@@H]3[C@@H]4C[C@@H]4CN3C(=O)[C@H](CC(C)C)NC(=O)c3cc4cc(C(=O)P(=O)(O)O)ccc4[nH]3)cc2)C(C)(C)C)cc1` [Compound I-137, diammonium 2-[[(2S)-1-[(1R,2S,5S)-2-[[(3S,4R)-1-carbamoyl-4-[[4-(4-[[(2S)-1-[(2S,4R)-4-hydroxy-2-([[4-(4-methyl-1,3-thiazol-5-yl)phenyl]methyl]carbamoyl)pyrrolidin-1-yl]-3,3-dimethyl-1-oxobutan-2-yl]carbamoyl]butyl)phenyl]methoxy]pentan-3-yl]carbamoyl]-3-azabicyclo[3.1.0]hexan-3-yl]-4-methyl-1-oxopentan-2-yl]carbamoyl]-1H-indole-5-carbonylphosphonate], the DC50 is 0.01 to 0.1 µM.
